Target: 3-beta-hydroxysteroid-Delta(8),Delta(7)-isomerase (Homo sapiens, UniProt Q15125)
Assay: Displacement of [3H]ifenprodil from FLAG-tagged EBP (unknown origin) overexpressing human Expi293F cells measured after 20 mins by Microbeta microplate counter
Type: cell-based

Sequence of 3-beta-hydroxysteroid-Delta(8),Delta(7)-isomerase (Q15125 whole entry): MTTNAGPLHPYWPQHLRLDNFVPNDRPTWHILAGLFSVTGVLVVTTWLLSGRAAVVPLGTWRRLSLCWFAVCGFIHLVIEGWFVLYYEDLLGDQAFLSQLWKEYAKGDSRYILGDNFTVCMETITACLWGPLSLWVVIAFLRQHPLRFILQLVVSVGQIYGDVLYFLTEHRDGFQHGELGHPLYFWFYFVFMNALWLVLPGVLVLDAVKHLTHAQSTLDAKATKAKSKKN

Row | SMILES | IC50
1 | Cn1nc(C2CCC2)cc1S(=O)(=O)N1CC2(CN(C3CCOCC3)C2)C1 | < 15 nM
2 | Cc1nc(C(F)(F)C(F)(F)F)ccc1S(=O)(=O)N1CC2(CN(C3CCOCC3)C2)C1 | < 15 nM
3 | CCc1cnccc1CN1CC2(C1)CN(S(=O)(=O)c1ccc(C(F)(F)F)nc1C)C2 | < 15 nM
4 | Cn1nc(-c2ccccc2)cc1S(=O)(=O)N1CC2(CN(C3CCOCC3)C2)C1 | < 15 nM
5 | Cn1nc(C2CCCCC2)cc1S(=O)(=O)N1CC2(CN(C3CCOCC3)C2)C1 | < 15 nM
6 | Cc1cc(C(F)(F)F)nc(C)c1S(=O)(=O)N1CC2(CN(Cc3ccn(C)n3)C2)C1 | < 15 nM
